The record followed here is patent publication US12239643B2, “Therapeutic agent for inflammatory diseases, autoimmune diseases, fibrotic diseases, and cancer diseases” (MEIJI SEIKA PHARMA CO., LTD., priority 2018, dated 2025).

Read-outs that look alike come from different tables or passages of the source. A value given as a limit tells only on which side of the number the result lay.

One data set relates to PDE4. The data set can be described thus: Evaluation of PDE4 inhibitory activity, scintillation proximity assay. The class given is biochemical. The following applies: for PDE4 inhibitory activity: summary in words of Tables 57 to 69. Put shortly: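 IC50 was derived from inhibition curves, referenced to an enzyme-free blank and a DMSO-only control. Compound, PDE4 preparation and tritiated cAMP reacted 120 min at RT in Tris-HCl buffer (pH 7.4) with MgCl2, EGTA and BSA; YSi-SPA beads with ZnSO4 bound product before scintillation counting.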
For orientation: Scintillation proximity formats need no separation of bound from free tracer.

Data set [1] concerns oxazolone-induced auricle edema, BALB/c mice. Description: Hapten repeated application mouse chronic dermatitis model (oral, topical). The class given is in vivo. To be noted: oral, 0.3 to 10 mg/kg twice a day for 10 days. As for the experimental part: Evaluation was carried out using female BALB/c mice (7 to 8 weeks of age). First, the hair of the abdomen of the mice was treated with a hair clipper, and then 150 μL of a 3% oxazolone acetone/ethanol solution was applied to the abdomen as a hapten. One week later, 20 μL/ear of 1% oxazolone acetone/ethanol solution was applied to the outer surface of the auricle of both ears of the mice 3 times/week to induce inflammation. A 1% oxazolone-acetone/ethanol solution was applied every other day for 10 days from 1 week after the start of inflammation induction. In addition, for 10 days from 1 week after the start of inflammation induction, the test compound suspended in 0.5% w/v methylcellulose (0.5% MC) was orally administered at 0.3 to 10 mg/kg twice a day (10 μL/g), or 20 μL of a 0.3 to 3% test compound dissolved in an acetone/ethanol solution was applied once or twice a day (topical administration). A 1% oxazolone was not applied to the blank. The control was one in which 1% oxazolone was applied and only 0.5% MC was orally administered without using the test compound, or only an acetone/ethanol solution was applied.
After administration for 10 days, auricle thickness was measured using a dial thickness gauge, and the changes in auricular thickness before the treatment (immediately before the start of administration of the test compound) and after the treatment (after the administration of the test compound for 10 days) were used to calculate the edema suppression rate by the following formula. Edema Suppression Rate (%)={1−(Auricle Thickness After Treatment by Test Compound−Auricle Thickness Before Treatment by Test Compound)/(Auricle Thickness After Treatment of Control−Auricle Thickness Before Treatment of Control)}×100
The measurement results obtained by measuring the edema suppression rate at the time of oral administration of each test compound by the above method were evaluated in accordance with the following evaluated basis; A: 70% or more, B: 40% or more and less than 70%, and C: less than 40%. In addition, the measurement results obtained by measuring the edema suppression rate at the time of topical administration of each test compound were evaluated in accordance with the following evaluated basis; A: 100% or more, B: 70% or more and less than 100%, and C: less than 70%.

In data set [2] the test system is TNFα. The data set can be described thus: Cytokine suppression using whole human blood: TNFα (lipopolysaccharide stimulus). The following applies: human whole blood, read-out: TNFα Inhibitory Activity, Human Whole Blood (Test Example 3). The format is cell-based. As for the experimental part: The test compound dissolved in dimethyl sulfoxide was added to a 96-well plate, and RPMI-1640 medium and human peripheral blood containing sodium heparin were added, followed by culture at 37° C. under 5% CO2 for 1 hour. A medium containing only dimethyl sulfoxide instead of the test compound was added to the control well. To each well, lipopolysaccharide (final concentration 10 ng/mL) as a TNFα production stimulant, or phytohaemagglutinin (final concentration 20 μg/mL) as an IL-17A production stimulant, or CytoStim reagent ( 1/100 concentration) and CD28 antibody (final concentration 2.5 ng/mL) as an IL-4 production stimulant and an IL-5 production stimulant were added, followed by culture at 37° C. under 5% CO2. The culture was carried out for about 18 hours for the evaluation of the amount of TNFα, and for about 48 hours for the evaluation of the amounts of IL-17A, IL-4, and IL-5.
After collecting the culture supernatant after culturing, the amount of each cytokine was measured by the sandwich ELISA method. The cytokine production suppression rate (inhibition rate) by the test compound was calculated by the following formula from the cytokine production amount when the test compound was added, with the cytokine production amount for the control well as 100%. Inhibition Rate={1−(Cytokine Amount at Addition of Each Test Compound)/(Cytokine Amount for Control Well)}×100
In addition, the cytokine inhibitory activity (concentration for the inhibition rate of 50%) of the test compound was calculated from the inhibition curves based on the inhibition rates for various concentrations of the test compound.
The measurement results obtained by measuring the TNFα inhibitory activity and IL-5 inhibitory activity (50% inhibitory concentration) of the test compounds by the above method were evaluated in accordance with the following evaluated basis; A: less than 100 nM, B: 100 nM or more and less than 500 nM, and C: 500 nM or more. In addition, the measurement results obtained by measuring the IL-17A inhibitory activity and IL-4 inhibitory activity (50% inhibitory concentration) of the test compounds were evaluated in accordance with the following evaluated basis; A: less than 500 nM, B: 500 nM or more and less than 5000 nM, and C: 5000 nM or more.

Data set [3] has as its system TNFα. The data set can be described thus: Cytokine suppression using human peripheral blood mononuclear cells: TNFα. The format is cell-based. To be noted: human PBMC, lipopolysaccharide 1 ng/mL; read-out: TNFα Inhibitory Activity, Human PBMC (Test Example 4). As for the experimental part:
First, peripheral blood mononuclear cells (PBMC) were separated from whole blood by specific gravity centrifugation. Then, the isolated peripheral blood mononuclear cells were added to RPMI-1640 medium (containing 10% fetal bovine serum, penicillin, streptomycin, L-glutamine, and 2-mercaptoethanol), and cultured in a 96-well plate at 37° C. under 5% CO2 for 0 to 1 hour. The test compound dissolved in dimethyl sulfoxide was added to each well, followed by further culture at 37° C. under 5% CO2 for 1 hour. A medium containing only dimethyl sulfoxide instead of the test compound was added to the control well. To each well, lipopolysaccharide (final concentration 1 ng/mL) as a TNFα production stimulant and an IL-23 production stimulant, or concanavalin A (final concentration 20 μg/mL) as an IL-17A production stimulant was added, followed by culture at 37° C. under 5% CO2. In addition, as IL-4 production stimulus, IL-5 production stimulus, and IL-13 production stimulus, PBMC was seeded on a 96-well plate previously coated with a CD3 antibody (final concentration 3 μg/mL), and a CD28 antibody (final concentration 5 ng/mL) was added. The culture was carried out for about 18 hours for the evaluation of the amounts of TNFα and IL-23, and about 48 hours for the evaluation of the amounts of IL-17A, IL-4, IL-5, and IL-13. After collecting the culture supernatant after culturing, the amount of each cytokine was measured by the sandwich ELISA method in the same manner as in Test Example 3, and the cytokine production suppression rate (inhibition rate) and the cytokine inhibitory activity (concentration for the inhibition rate of 50%) of each test compound were calculated.
The measurement results obtained by measuring the TNFα inhibitory activity and IL-5 inhibitory activity (50% inhibitory concentration) of the test compounds by the above method were evaluated in accordance with the following evaluated basis; A: less than 10 nM, B: 10 nM or more and less than 100 nM, and C: 100 nM or more. In addition, the measurement results obtained by measuring the IL-17A inhibitory activity, IL-23 inhibitory activity, IL-4 inhibitory activity, and IL-13 inhibitory activity (50% inhibitory concentration) of the test compounds were evaluated in accordance with the following evaluated basis; A: less than 500 nM, B: 500 nM or more and less than 5000 nM, and C: 5000 nM or more.

A further data set concerns TGF-β. Description: TGF-β inhibitory activity using THP1 cells differentiated into macrophages. The format is cell-based. To be noted: Homo sapiens, THP-1; THP1 cells differentiated into macrophages, lipopolysaccharide 1 μg/mL, about 7 hours; read-out: TFG-β Inhibitory Activity (Test Example 6). How it is done:
The TGF-β inhibitory activity was measured using THP1 cells as follows. First, THP1 cells were seeded on a 24-well culture plate at […], and culture was carried out overnight at 37° C. and 5% CO2 in RPMI-1640 medium (containing 10% fetal bovine serum, penicillin, and streptomycin) supplemented with 100 nM phorbol myristate acetate. After that, the cells were differentiated into macrophages by changing to RPMI-1640 medium without phorbol myristate acetate, followed by further culture at 37° C. under 5% CO2 overnight. Next, the THP1 culture plate was washed once with PBS(−) 1 mL/well, and then the test compound and lipopolysaccharide (final concentration 1 μg/mL) were added, followed by culture at 37° C. under 5% CO2 for about 7 hours. After culturing, the entire amount of the medium was collected, and the amount of TGF-β in the centrifuged supernatant was quantified by the sandwich ELISA method. The non-addition of lipopolysaccharide was used as a blank, and the control was obtained by adding only dimethyl sulfoxide instead of the test compound, and the inhibition rate of the test compound against the control was calculated by the following formula. Inhibition Rate (%)={1−(Value at Addition of Each Test Compound−Blank Value)/(Control Value−Blank Value)}×100
In addition, the TGF-β inhibitory activity (concentration for the inhibition rate of 50%) of the test compound was calculated from the inhibition curves based on the inhibition rate for various concentrations of the test compound.
The measurement results obtained by measuring the TFG-β inhibitory activity (50% inhibitory concentration) of the test compounds by the above method were evaluated in accordance with the following evaluated basis; A: less than 1 μM, and B: 1 μM or more.

Data set [4] can be described thus: Hepatic metabolic stability (rat liver microsome method). The following applies: rat liver microsomes 0.5 mg/mL, test substance 1 μM, NADPH 1 mM, 37° C., 30 minutes. The class given is in vitro ADME. Put shortly: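 Scored by % parent left after 30 min (30 min/0 min ×100, LC-MS), banded A ≥75%, B 60–<75%, C 45–<60%, D <45%. Incubation: 1 μM compound, 0.5 mg/mL rat microsomes, pH 7.4 phosphate buffer, 37° C, 5 min preincubation, NADPH 1 mM started, acetonitrile quench.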

Where [5] appears, read: finer grading of compounds rated A in Evaluation 1, read-out: PDE4 Inhibitory Activity (Evaluation 2).
The mark [6] stands for this setting: scintillation proximity assay, class symbols of Evaluation 1, read-out: PDE4 Inhibitory Activity (concentration for the inhibition rate of 50%, IC50), Evaluation 1.
Setting [7] is: scintillation proximity assay, read-out: PDE4 Inhibitory Activity (Evaluation 1; concentration for the inhibition rate of 50%).

On to `OC(c1ccc(-c2nccs2)c2oc(N3CC4CCC(C3)N4)nc12)C(F)(F)F` (stereo not shown) [Example 118, 1-(2-(3,8-Diazabicyclo[3.2.1]octan-3-yl)-7-(thiazol-2-yl)benzo[d]oxazol-4-yl)-2,2,2-trifluoroethan-1-ol], for which the IC50 with PDE4 (setting [5]) is 1 to 11 nM; in the data set on PDE4 (setting [6]), below 100 nM; in the data set with TNFα [2] (Homo sapiens), 100 to 500 nM. Further, the PDE4 inhibitory activity entry in the data set with PDE4 is given as “particularly excellent”. In data set [1], the “Mouse Chronic Dermatitis Model (Test Example 8), Oral: edema suppression rate” value (shortened to “Mouse Chronic Dermatitis Model”) was “B (B: 40% or more and less than 70%)”.

`OC(c1ccc(-c2nccs2)c2oc(N3CC4CCC(C3)N4)nc12)C(F)(F)F` (stereo not shown) [Example 119, 1-(2-(3,8-Diazabicyclo[3.2.1]octan-3-yl)-7-(thiazol-2-yl)benzo[d]oxazol-4-yl)-2,2,2-trifluoroethan-1-ol]: the IC50 with PDE4 (setting [5]) is at most 1 nM; in the data set on PDE4 (setting [6]), below 100 nM; with TNFα [3], below 10 nM; in the data set on TNFα [2], below 100 nM. Besides, the PDE4 inhibitory activity entry in the data set on PDE4 was “particularly excellent”. For the same compound, the “Mouse Chronic Dermatitis Model” value in data set [1] is reported as “A (A: 70% or more)”.

As to `COC(C)(C)c1cc(-c2nccs2)c2oc(N3CC4CC(C3)N4)nc2c1C(F)(F)F` [Example 176, 2-(3,6-Diazabicyclo[3.1.1]heptan-3-yl)-5-(2-methoxypropan-2-yl)-7-(thiazol-2-yl)-4-(trifluoromethyl)benzo[d]oxazole], the figures for the IC50 with PDE4 (setting [5]), with PDE4 (setting [6]) and in the data set on TNFα [2] (Homo sapiens) were 1 to 11 nM, below 100 nM and 100 to 500 nM, respectively. For the same compound, in the data set on PDE4, the PDE4 inhibitory activity result is reported as “particularly excellent”. In addition, in data set [1], the “Mouse Chronic Dermatitis Model” value was “B (B: 40% or more and less than 70%)”.

`CC(C)(O)c1cc(-c2nccs2)c2oc(N3CC4CCC(C3)N4)nc2c1OC(F)(F)F` [Example 195, 2-(2-(3,8-diazabicyclo[3.2.1]octan-3-yl)-7-(thiazol-2-yl)-4-(trifluoromethoxy)benzo[d]oxazol-5-yl)propan-2-ol]: the IC50 in the data set with PDE4 (setting [5]) was at most 1 nM; in the data set on PDE4 (setting [7]), below 100 nM; in the data set with TGF-β, below 1000 nM; with TNFα [2] (Homo sapiens), 100 to 500 nM. In addition, in the data set with PDE4, the PDE4 inhibitory activity result was “particularly excellent”. Also, the “Mouse Chronic Dermatitis Model” value in data set [1] was “B (B: 40% or more and less than 70%)”.

For the compound `OCC(F)(F)Oc1ccc(-c2nccs2)c2oc(N3CC4CC(C3)N4)nc12` [Example 249, 2-((2-(3,6-Diazabicyclo[3.1.1]heptan-3-yl)-7-(thiazol-2-yl)benzo[d]oxazol-4-yl)oxy)-2,2-difluoroethan-1-ol], in data set [4], the “Residual ratio (% remaining for 30-minute reaction)” value was “B (B: 60% or more and less than 75%)”. In addition, the IC50 in the data set on PDE4 (setting [5]) is at most 1 nM; in the data set on PDE4 (setting [7]), below 100 nM; in the data set on TNFα [2] (Homo sapiens), below 100 nM. Besides, the PDE4 inhibitory activity entry in the data set with PDE4 is reported as “particularly excellent”. Further, the “Mouse Chronic Dermatitis Model” value in data set [1] is “B (B: 40% or more and less than 70%)”.
